The values that follow come from patent publication US7566710B2, “Dual molecules containing a peroxide derivative, synthesis and therapeutic applications thereof” (Centre National de la Racherche Scientifique (C.N.R.S.), priority 2000, dated 2009).

SMILES strings stand for the structures. “And” between values parts separate entries of the source, which are not always exact repeats. Equal values may be shown once. “Also recorded” adds a separate entry of the source. Read-outs that look alike come from different tables or passages of the source. A value given as a limit tells only on which side of the number the result lay.

Series [1] deals with P. falciparum FcB1-Colombia (chloroquine resistant strain). Put plainly: Anti-malarial activity on P. falciparum FcB1-Colombia strain, tritiated hypoxanthine incorporation. The class given is cell-based, Plasmodium falciparum. As to the method: The P. falciparum strains are cultured continuously according to Trager and Jensen's method 5, with the following modifications 6: the parasites are maintained in human red blood cells (O±), diluted to 1% haematocrit in RPMI 1640 medium supplemented with 25 mM Hepes+30 mM NaHCO3 and complemented with 5% AB+ human serum. The parasite populations are synchronised over a 4 hour period by flotation with a gelatine solution, followed by lysis with 5% D-sorbitol 7,8. […]. The anti-malarial activity tests are performed using Desjardins' radioactive micromethod 11. The tests are performed in triplicate, in 96-well microplates, the readings being at 1% haematocrit and 0.5-1% parasitaemia. For each test, the parasites are incubated with decreasing concentrations of drug for either 32 hours and 72 hours (4 wells contain chloroquine diphosphate as a reference). The first dilution of the drug is performed at 10 mg/ml in dimethylsulphoxide and the following dilutions are made with RPMI 1640. The parasite growth is measured with the incorporation of tritiated hypoxanthine compared to incorporation in the absence of drug (taken to be 100%). 12 and the IC50 values are determined graphically by plotting the percentage of inhibition as a function of the drug concentration.

For series [2], the system named is P. falciparum Nigerian (chloroquine susceptible strain). Description: Anti-malarial activity on P. falciparum Nigerian strain, tritiated hypoxanthine incorporation. The class given is cell-based, Plasmodium falciparum. As to the method:
(§1) The parasite populations are synchronised over a 4 hour period by flotation with a gelatine solution, followed by lysis with 5% D-sorbitol 7,8. […] The anti-malarial activity tests are performed using Desjardins' radioactive micromethod 11. The tests are performed in triplicate, in 96-well microplates, the readings being at 1% haematocrit and 0.5-1% parasitaemia. For each test, the parasites are incubated with decreasing concentrations of drug for either 32 hours and 72 hours (4 wells contain chloroquine diphosphate as a reference). […] The parasite growth is measured with the incorporation of tritiated hypoxanthine compared to incorporation in the absence of drug (taken to be 100%). 12 and the IC50 values are determined graphically by plotting the percentage of inhibition as a function of the drug concentration.

In series [3] the test system is P. falciparum FcM29-Cameroon (highly chloroquine resistant strain). Put plainly: Anti-malarial activity on P. falciparum FcM29-Cameroon strain, tritiated hypoxanthine incorporation. Type of series: cell-based, Plasmodium falciparum. As to the method: as §1
Series [4] relates to three Plasmodium falciparum strains. Put plainly: Anti-malarial activity, summary over the Nigerian, FcB1 and FcM29 strains. The class given is cell-based. Conditions: susceptible and resistant strains. As to the method:
as §1

In another series the test system is P. falciparum in culture. Description: In vitro activity on P. falciparum in culture. Conditions: Plasmodium falciparum, read-out: LC50. Type of series: cell-based.
For the next series, the system named is P. vinckei. Put plainly: 4 day test in mice infected with P. vinckei. Type of series: in vivo. Particulars: intraperitoneal route, for 2 months.
In the next series the test system is E. coli GE864. Description: Mutagenicity, SOS response (DNA repair induction) in E. coli GE864. Conditions: E. coli GE864, 5, 10, 15 and 20 μM; control 3 μM mitomycin C. Type of series: cell-based.
Series [5] can be described thus: Toxicity after administration to healthy mice. Conditions: 100 mg/kg/day oral route, three consecutive days.
For series [6], the system named is P. falciparum FcB1-Colombia (chloroquine resistant strain). Conditions: read-out: IC50 for chloroquine, FcB1-Columbia strain, literature refs 9,10; cited from earlier work.
The subject of series [7] is P. falciparum FcM29-Cameroon (highly chloroquine resistant strain). Conditions: read-out: IC50 for chloroquine, literature refs 9,10; cited from earlier work.
Series [8] concerns human Plasmodium falciparum isolates. Put plainly: Activity on human Plasmodium falciparum isolates. The class given is cell-based. As to the method: Trioxaquine-citrate 4, referred to as DU-1102, was tested on human Plasmodium falciparum isolates, some of which were chloroquine- and/or pyrimethamine-resistant.
[9] abbreviates: FcB1-Colombia (CQR), 32 hrs, read-out: IC50.
Setting [10] is: FcB1-Colombia (CQR), 72 hrs, read-out: IC50.
Where [11] appears, read: Nigerian (CQS), 32 hrs, read-out: IC50.
Where [12] appears, read: Nigerian (CQS), 72 hrs, read-out: IC50.

For `O=C1CCC2(CC1)OOC1(c3ccccc3)CC(c3ccccc3)=CC1O2` (centres unmarked) [Trioxane-ketone 2], the IC50 (usually the point on the concentration scale where inhibition reaches its midpoint) was found to be 113 nM in series [1] (setting [9]), 36 nM in series [1] (setting [10]), 149 nM in [2] (setting [11]) and 45 nM in series [2] (setting [12]).

Turning to `Clc1ccc2c(NCCNC3CCC4(CC3)OOC3(c5ccccc5)CC(c5ccccc5)=CC3O4)ccnc2c1` (mixture of isomers) [Trioxaquine 3], the IC50 turned out to be 18 nM in [3] (FcM29-Cameroon (CQR+), 72 hrs, read-out: IC50); 9 nM in [1] (setting [10]); 1 ng/mL in series [2] (Nigerian (CQS), 32 hrs); 1.8 nM in series [2] (setting [11]). Moreover, the “activity compared with chloroquine and the two fragments” value in series [4] was “significantly greater than the activity of not only chloroquine, but also of each of the two fragments”.

Take `CC(C)C1=CC2OC3(CCC(NCCNc4ccnc5cc(Cl)ccc45)CC3)OOC2(C)CC1.O=C(O)CC(O)(CC(=O)O)C(=O)O.O=C(O)CC(O)(CC(=O)O)C(=O)O` (centres unmarked) [DU-1302]: the LC50 (in general, the concentration that kills 50% of the test population) in the series on P. falciparum in culture was determined as 6 nM. Also, the re-emergence entry with P. vinckei is “no observable re-emergence”. Also, the “mutagenicity, induction of DNA repair (SOS response)” value in the series with E. coli GE864 was “Absence of mutagenicity”. For the same compound, the apparent toxicity result in series [5] is recorded as “does not show any apparent toxicity”.

In the case of `CCN(CC)CCCC(C)Nc1ccnc2cc(Cl)ccc12` (centres unmarked) [chloroquine], the IC50 in series [6] and in [7] was more than 100 nM each time.

Regarding `CCN(CC)CCCC(C)Nc1ccnc2cc(Cl)ccc12` (centres unmarked) [Chloroquine diphosphate], the IC50 is 0.1 µg/mL and 194 nM in series [3] (Plasmodium falciparum, 32 h); 0.08 µg/mL and 155 nM in series [3] (Plasmodium falciparum, 72 h); 0.075 µg/mL in series [1] (Plasmodium falciparum, FCB1, 32 h); 0.06 µg/mL and 116 nM in [1] (Plasmodium falciparum, FCB1, 72 h); 0.045 µg/mL and 87 nM in series [2] (Plasmodium falciparum, 32 h); 0.01 µg/mL and 19 nM in [2] (Plasmodium falciparum, 72 h).

With `NCCNc1ccnc2cc(Cl)ccc12` [Quinoline-amine1, 7-chloro-4-[N-(2-aminoethyl)amino]-quinoline], the IC50 amounted to 0.035 µg/mL in series [1] (Plasmodium falciparum, FcB1-Colombia (CQR), 32 hrs, read-out: IC50); 0.02 µg/mL in [1] (Plasmodium falciparum, FcB1-Colombia (CQR), 72 hrs, read-out: IC50); 33 ng/mL in series [2] (Plasmodium falciparum, Nigerian (CQS), 32 hrs, read-out: IC50); 7 ng/mL in series [2] (Plasmodium falciparum, Nigerian (CQS), 72 hrs, read-out: IC50).

Consider `Clc1ccc2c(NCCNC3CCC4(CC3)OOC3(c5ccccc5)CC(c5ccccc5)=CC3O4)ccnc2c1.O=C(O)CC(O)(CC(=O)O)C(=O)O.O=C(O)CC(O)(CC(=O)O)C(=O)O` (centres unmarked) [Trioxaquine 4], for which the concentration for half-maximal inhibition (IC50) was 0.035 µg/mL in series [1] (FcB1-Colombia (CQR), 32 hrs); 37 nM in series [1] (setting [9]); 0.02 µg/mL in [1] (FcB1-Colombia (CQR), 72 hrs); 21 nM in series [1] (setting [10]); 33 ng/mL in series [2] (Nigerian (CQS), 32 hrs); 35 nM in series [2] (setting [11]). Further, the IC50 was found to be 7 ng/mL in [2] (Nigerian (CQS), 72 hrs); 8 nM in series [2] (setting [12]); 43 nM in [8] (read-out: IC50 geometric mean). In addition, in [4], the “activity compared with chloroquine and the two fragments” value was “significantly greater than the activity of not only chloroquine, but also of each of the two fragments”. Moreover, the IC50 geometric mean in series [8] came out at 0.041 µg/mL. The “relation of activity to susceptibility or resistance to other anti-malarial agents (chloroquine, pyrimethamine)” value in series [8] (listed as DU-1102) is recorded as “independent of their susceptibility or their resistance; also recorded: no correlation”.

For `Clc1ccc2c(NCCCCNC3CCC4(CC3)OOC3(c5ccccc5)CC(c5ccccc5)=CC3O4)ccnc2c1` (mixture of isomers) [Trioxaquine 9], in series [4], the “activity compared with chloroquine and the two fragments” value is given as “significantly greater than the activity of not only chloroquine, but also of each of the two fragments”.
